According to ChEMBL document CHEMBL1201862, “PubChem BioAssay data set” (2004):
Active and inactive are the calls of the source.

Columns and labels:
[1] = Luminescence Cell-Based Dose Confirmation HTS to Identify Activators of 5'UTR Stem-Loop Driven Alpha-Synuclein mRNA Translation in H4 Neuroglioblastoma Cells. [Related pubchem assays: 1829 (Project Summary), 1814 (Primary HTS)]; assay type: functional
[2] = tested on: H4; assay: Luminescence Cell-Based Dose Response HTS to Identify Activators of 5'UTR Stem-Loop Driven Prion Protein mRNA Translation in H4 Neuroglioblastoma Cells. [Related pubchem assays: 1829 (Project Summary), 1814 (Primary HTS)]; assay type: functional; details: Homo sapiens
[3] = Luminescence Cell-Based Dose Response HTS to Identify Activators of Luciferase Translation or Activity in H4 […] Cells. [Related pubchem assays: 1829 (Project Summary), 1814 (Primary HTS)]; assay type: functional
[4] = biological target: Cytochrome P450 2C9 (Homo sapiens, UniProt P11712)
[5] = biological target: T1, Polyadenylate-binding protein 1 (Homo sapiens, UniProt P11940); assay: MLLE domain peptide-binding blockers, IC50 – biochemical, fluorescence polarization, FITC-PAM2 peptide, dose response (AID 602259); assay type: functional; details: read-out: IC50_Mean
[6] = biological target: Nonstructural protein 1 (Influenza A virus, UniProt Q194T2); assay type: functional, Influenza A virus (A/California/07/2009(H1N1))
[7] = biological target: T1, Polyadenylate-binding protein 1; assay: MLLE binding blockers, Cy5 peptide tracer – biochemical, fluorescence polarization, Cy5-PAM2 peptide, secondary, miRNA deadenylation inhibitor project, dose response (AID 602260); assay type: functional; details: read-out: IC50_Mean
[8] = microbe, parasite or virus in culture; assay type: functional; details: Mycobacterium tuberculosis
[9] = biological target: Cytochrome P450 3A4 (Homo sapiens, UniProt P08684);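 note: CYP3A4 tested as one member of a cytochrome P450 panel screen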
[10] = biological target: Cytochrome P450 2C19 (Homo sapiens, UniProt P33261); assay: Cytochrome panel assay with activity outcomes. Panel member name: p450-cyp2c19 Compounds with AC50 equal or less than 10 uM are considered active; assay type: functional; details: read-out: AC50
[11] = viability loss in THP-1 monocytes – THP-1 cells, cytotoxicity control for Vif-APOBEC3G degradation inhibitor project, dose response (AID 1117359); assay type: functional; details: THP-1
[12] = viability of uninfected HEp-2 cells – cell-based, HTS, cytotoxicity control for RSV inhibitor project, dose response (AID 2410); assay type: functional; details: human respiratory syncytial virus
[13] = biological target: Luciferin 4-monooxygenase (Photinus pyralis, UniProt P08659); assay: inhibition of purified Photinus pyralis luciferase – biochemical, luminescence, dose response (AID 1891)
[14] = Luminescence Cell-Based Dose Confirmation HTS to Identify Inhibitors of Platelet Dense Granule Release. [Related pubchem assays: 1663 (Primary HTS), 1678 (Summary of Project)]; assay type: functional
[15] = biological target: T2, Heat shock factor protein 1 (Mus musculus, UniProt P38532); assay: enhancement of HSF1-driven luciferase signal – cell-based, NIH3T3, luminescence, dose retest, confirmation (AID 435004); assay type: functional;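 note: stress induced by proteasome inhibitor MG132 added 30 min after compound; luciferase reporter driven by HSF1 response element in NIH3T3 cells; actives raise luminescence as potentiators of the MG132 stress response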
T2 sequence (P38532 whole entry): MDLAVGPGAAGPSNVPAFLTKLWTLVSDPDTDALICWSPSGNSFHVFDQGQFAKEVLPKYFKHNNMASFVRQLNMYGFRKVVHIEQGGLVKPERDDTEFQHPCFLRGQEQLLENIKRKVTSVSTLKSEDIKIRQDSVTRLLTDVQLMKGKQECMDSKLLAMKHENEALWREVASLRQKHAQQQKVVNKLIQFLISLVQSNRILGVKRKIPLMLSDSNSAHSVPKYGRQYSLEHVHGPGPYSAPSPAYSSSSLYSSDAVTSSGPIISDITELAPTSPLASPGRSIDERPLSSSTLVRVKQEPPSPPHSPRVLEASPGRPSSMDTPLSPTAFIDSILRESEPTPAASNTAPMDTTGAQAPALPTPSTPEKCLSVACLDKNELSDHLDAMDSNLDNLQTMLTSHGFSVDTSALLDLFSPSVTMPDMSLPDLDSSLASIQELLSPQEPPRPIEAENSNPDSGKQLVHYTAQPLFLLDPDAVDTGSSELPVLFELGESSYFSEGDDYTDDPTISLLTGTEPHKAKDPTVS

[16] = tested on: Streptococcus sp. 'group A'; assay: Streptococcus pyogenes SK(-)GAS viability under kanamycin – luminescence, BacTiterGlo, confirmation, counter-screen for streptokinase expression inhibitor project, dose response (AID 1900); assay type: functional, organism-based
[17] = tested on: Streptococcus; assay: GAS UMAA2166 growth inhibition – luminescence, BacTiterGlo, counter-screen for streptokinase expression inhibitor project, dose response (AID 1915); assay type: functional, organism-based;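 note: potency for reduction of bacterial viability or growth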
[18] = biological target: T3, Cytochrome P450 1A2 (Homo sapiens, UniProt P05177);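 note: PubChem cytochrome P450 panel assay, CYP1A2 panel member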
T3 sequence (P05177 whole entry): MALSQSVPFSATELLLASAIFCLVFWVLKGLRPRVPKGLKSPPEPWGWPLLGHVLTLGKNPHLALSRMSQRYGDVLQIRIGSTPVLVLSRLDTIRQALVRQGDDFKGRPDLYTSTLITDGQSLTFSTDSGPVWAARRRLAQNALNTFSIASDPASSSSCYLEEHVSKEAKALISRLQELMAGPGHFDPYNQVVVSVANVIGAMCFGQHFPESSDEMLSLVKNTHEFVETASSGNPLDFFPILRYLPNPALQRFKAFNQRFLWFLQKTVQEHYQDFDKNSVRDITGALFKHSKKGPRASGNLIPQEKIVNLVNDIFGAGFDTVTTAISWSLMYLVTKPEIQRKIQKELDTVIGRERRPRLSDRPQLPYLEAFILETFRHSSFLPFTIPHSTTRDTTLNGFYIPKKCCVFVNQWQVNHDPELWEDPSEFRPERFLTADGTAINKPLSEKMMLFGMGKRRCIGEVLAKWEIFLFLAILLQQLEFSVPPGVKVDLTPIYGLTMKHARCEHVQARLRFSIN

[19] = viability loss in HeLa cells – cytotoxicity control for MgcRacGAP inhibitor project, dose response (AID 624300); assay type: functional
[20] = biological target: T4, Rac GTPase-activating protein 1 (Homo sapiens, UniProt Q9H0H5); assay: blockers of MgcRacGAP-driven Rac1 GTP hydrolysis – biochemical, ADP Hunter fluorescence, primary and confirmatory, confirmation (AID 624330); assay type: functional
T4 sequence (Q9H0H5 whole entry): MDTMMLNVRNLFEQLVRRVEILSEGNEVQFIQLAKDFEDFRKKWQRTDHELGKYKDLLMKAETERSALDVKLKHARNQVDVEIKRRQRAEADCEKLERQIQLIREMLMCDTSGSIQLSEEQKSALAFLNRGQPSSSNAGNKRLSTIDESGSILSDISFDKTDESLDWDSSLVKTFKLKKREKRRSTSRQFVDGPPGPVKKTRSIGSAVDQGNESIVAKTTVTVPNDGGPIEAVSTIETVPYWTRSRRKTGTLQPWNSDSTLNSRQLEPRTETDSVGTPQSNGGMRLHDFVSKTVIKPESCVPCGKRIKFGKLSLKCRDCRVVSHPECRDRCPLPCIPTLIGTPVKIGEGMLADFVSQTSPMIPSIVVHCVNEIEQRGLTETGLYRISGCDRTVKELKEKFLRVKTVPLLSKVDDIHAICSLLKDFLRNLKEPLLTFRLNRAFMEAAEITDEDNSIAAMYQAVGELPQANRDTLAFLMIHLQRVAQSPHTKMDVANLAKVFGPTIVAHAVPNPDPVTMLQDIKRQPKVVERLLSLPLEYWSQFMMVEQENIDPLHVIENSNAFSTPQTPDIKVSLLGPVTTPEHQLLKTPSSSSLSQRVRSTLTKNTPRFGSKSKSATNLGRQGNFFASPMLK

[21] = biological target: Cytochrome P450 2D6 (Homo sapiens, UniProt P10635);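 note: CYP2D6 member of a cytochrome P450 panel assay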
[22] = biological target: FAD-linked sulfhydryl oxidase ALR (Homo sapiens, UniProt P55789); assay: ALR-catalysed DTT oxidation blockers – biochemical, H2O2 detection, luminescence, cherry-pick, dose response (AID 493248)
Sequence of FAD-linked sulfhydryl oxidase ALR (P55789 whole entry): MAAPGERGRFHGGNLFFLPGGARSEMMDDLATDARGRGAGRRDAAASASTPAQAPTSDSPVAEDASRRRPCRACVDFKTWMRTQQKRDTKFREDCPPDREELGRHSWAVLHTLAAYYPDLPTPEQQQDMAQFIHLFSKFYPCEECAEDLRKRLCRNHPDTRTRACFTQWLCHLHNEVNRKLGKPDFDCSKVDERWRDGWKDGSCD

Sequence of Cytochrome P450 2C9 (P11712 whole entry, the tested form may be a part): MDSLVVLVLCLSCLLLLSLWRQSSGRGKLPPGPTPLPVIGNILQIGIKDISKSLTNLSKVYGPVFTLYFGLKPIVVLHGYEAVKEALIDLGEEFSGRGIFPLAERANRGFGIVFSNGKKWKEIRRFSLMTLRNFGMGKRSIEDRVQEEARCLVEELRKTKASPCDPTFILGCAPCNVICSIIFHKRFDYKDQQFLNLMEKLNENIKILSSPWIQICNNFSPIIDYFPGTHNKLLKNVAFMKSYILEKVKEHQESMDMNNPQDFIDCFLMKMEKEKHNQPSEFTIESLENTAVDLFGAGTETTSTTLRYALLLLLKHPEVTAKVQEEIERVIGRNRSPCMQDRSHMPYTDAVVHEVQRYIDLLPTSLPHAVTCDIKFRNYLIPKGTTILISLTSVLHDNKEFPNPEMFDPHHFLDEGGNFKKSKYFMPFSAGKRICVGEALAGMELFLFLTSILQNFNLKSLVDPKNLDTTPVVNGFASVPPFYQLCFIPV
Sequence of Nonstructural protein 1 (Q194T2 whole entry): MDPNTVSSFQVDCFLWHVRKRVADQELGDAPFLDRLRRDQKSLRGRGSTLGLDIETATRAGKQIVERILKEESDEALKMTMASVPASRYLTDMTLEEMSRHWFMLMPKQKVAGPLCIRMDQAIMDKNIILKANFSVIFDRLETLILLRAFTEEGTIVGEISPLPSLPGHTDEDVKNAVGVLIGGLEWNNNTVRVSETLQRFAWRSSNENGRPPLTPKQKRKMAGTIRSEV
Sequence of Cytochrome P450 3A4 (P08684 whole entry): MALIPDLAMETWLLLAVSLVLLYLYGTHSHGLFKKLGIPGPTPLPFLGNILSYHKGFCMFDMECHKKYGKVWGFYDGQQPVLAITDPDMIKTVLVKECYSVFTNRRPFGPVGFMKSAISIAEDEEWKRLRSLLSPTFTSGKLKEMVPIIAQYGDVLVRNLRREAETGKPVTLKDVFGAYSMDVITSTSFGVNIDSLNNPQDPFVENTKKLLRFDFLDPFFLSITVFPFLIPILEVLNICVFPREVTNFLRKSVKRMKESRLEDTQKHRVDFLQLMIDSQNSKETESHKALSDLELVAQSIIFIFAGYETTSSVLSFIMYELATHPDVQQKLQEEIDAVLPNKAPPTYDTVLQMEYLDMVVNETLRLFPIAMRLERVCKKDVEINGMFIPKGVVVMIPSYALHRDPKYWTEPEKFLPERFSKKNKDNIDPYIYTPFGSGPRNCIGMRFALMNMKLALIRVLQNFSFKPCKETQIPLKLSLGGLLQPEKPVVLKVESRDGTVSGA
Sequence of Cytochrome P450 2C19 (P33261 whole entry): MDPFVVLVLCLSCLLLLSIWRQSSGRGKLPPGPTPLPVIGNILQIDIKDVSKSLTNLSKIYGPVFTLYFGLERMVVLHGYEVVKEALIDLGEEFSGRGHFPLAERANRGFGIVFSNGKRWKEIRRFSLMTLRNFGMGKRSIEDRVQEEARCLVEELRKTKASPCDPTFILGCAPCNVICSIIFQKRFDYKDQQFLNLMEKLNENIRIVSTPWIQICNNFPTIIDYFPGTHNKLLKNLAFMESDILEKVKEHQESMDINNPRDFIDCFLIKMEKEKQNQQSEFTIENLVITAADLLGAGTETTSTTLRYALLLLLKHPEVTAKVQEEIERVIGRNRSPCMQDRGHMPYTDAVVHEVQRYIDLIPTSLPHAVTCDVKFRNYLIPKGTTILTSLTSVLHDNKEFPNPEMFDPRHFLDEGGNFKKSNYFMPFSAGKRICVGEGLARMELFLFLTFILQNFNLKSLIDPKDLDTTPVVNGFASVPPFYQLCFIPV
T1 sequence (P11940 whole entry, the tested form may be a part): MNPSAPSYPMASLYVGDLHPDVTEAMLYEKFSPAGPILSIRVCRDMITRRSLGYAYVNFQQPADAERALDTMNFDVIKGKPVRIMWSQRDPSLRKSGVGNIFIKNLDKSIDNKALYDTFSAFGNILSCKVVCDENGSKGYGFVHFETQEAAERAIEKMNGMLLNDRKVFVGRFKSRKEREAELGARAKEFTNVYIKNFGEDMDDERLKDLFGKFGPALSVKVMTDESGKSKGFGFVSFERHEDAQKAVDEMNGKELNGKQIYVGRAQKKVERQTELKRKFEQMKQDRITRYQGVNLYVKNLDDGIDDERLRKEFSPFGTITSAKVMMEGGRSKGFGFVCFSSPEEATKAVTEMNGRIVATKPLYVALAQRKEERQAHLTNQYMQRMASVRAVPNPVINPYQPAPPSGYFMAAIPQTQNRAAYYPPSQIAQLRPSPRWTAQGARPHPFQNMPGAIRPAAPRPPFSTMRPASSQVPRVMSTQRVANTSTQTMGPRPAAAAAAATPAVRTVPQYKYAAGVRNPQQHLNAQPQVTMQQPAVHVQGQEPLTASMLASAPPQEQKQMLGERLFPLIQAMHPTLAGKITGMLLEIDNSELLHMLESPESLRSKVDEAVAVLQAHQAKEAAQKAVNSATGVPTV
Sequence of Cytochrome P450 2D6 (P10635 whole entry): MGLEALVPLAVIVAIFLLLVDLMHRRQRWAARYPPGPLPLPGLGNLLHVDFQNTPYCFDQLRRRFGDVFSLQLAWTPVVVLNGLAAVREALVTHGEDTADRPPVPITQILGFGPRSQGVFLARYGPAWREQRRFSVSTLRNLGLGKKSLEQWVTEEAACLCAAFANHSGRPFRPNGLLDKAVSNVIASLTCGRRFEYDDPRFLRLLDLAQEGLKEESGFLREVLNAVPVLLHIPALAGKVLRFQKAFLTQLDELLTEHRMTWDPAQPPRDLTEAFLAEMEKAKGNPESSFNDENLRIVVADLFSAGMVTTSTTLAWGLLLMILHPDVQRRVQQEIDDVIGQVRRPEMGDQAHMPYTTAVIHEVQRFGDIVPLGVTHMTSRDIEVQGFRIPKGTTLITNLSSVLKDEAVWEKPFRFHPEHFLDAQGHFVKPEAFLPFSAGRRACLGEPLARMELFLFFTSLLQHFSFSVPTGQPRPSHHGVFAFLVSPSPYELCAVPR
Sequence of Luciferin 4-monooxygenase (P08659 whole entry): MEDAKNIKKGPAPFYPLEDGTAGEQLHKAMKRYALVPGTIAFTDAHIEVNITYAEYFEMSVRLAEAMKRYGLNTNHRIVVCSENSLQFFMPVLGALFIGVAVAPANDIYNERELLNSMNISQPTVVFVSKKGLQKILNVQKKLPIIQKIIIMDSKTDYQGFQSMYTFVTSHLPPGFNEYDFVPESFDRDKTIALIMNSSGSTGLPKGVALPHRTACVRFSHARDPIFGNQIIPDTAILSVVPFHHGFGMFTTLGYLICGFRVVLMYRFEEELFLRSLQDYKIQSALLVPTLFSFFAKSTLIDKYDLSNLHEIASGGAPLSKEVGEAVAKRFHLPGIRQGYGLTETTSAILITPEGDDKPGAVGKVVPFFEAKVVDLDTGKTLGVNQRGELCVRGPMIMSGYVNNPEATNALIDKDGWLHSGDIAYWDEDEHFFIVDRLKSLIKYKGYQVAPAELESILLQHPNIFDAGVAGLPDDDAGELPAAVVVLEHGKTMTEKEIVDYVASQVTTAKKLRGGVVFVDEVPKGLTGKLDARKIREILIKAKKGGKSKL

Structure (SMILES): COc1cccc(-c2nc3n(n2)C(c2ccc4c(c2)OCO4)C(C(N)=O)=C(C)N3)c1 (stereo not given)
- EC50 [1]: 12.4 µM (active)
- EC50 [2]: > 120 µM (not active)
- EC50 [3]: 31.6 µM (active)

Structure (SMILES): COc1ccc(CNc2ncncc2-c2cccnc2)c(OC)c1
- AC50 [4]: inconclusive

Structure (SMILES): NC(=O)NC(=O)CC1SC(NN=C2CSC(=O)N2)=NC1=O (stereo not given)
- IC50 [5]: > 66 µM (inactive)
- IC50 [6]: 7.54 µM (active)
- IC50 [7]: > 66 µM (inactive)

Structure (SMILES): CCCCC(=O)NN/C=C1\C(=O)NC(=O)N(Cc2ccco2)C1=O
- IC50 [6]: 13.7 µM (active)

Structure (SMILES): CCCCCCCCn1cnc2c(N)c(C)c(C)cc21
- CC50 [8]: > 40 µM (active)

Structure (SMILES): COc1ccc(NC(=O)C(=O)NCC(c2ccco2)N2CCc3ccccc3C2)cc1 (stereo not given)
- CC50 [8]: > 40 µM (active)

Structure (SMILES): CC(=O)c1c(C)[n+]([O-])c2cc(F)c(F)cc2[n+]1[O-]
- CC50 [8]: 35.4 µM (active)

Structure (SMILES): COc1ccc(-c2cc(=Nc3ccccc3)c3cc(C)ccc3o2)cc1.[O-][Cl+3]([O-])([O-])O
- EC50 [1]: 12.7 µM (active)
- EC50 [2]: 9.82 µM (active)
- EC50 [3]: 10.3 µM (active)

Structure (SMILES): O=C(Nc1nc[nH]n1)c1ccc([N+](=O)[O-])cc1[N+](=O)[O-]
- AC50 [9]: 14.1 µM (inconclusive)
- AC50 [10]: 39.8 µM (inconclusive)
- AC50 [4]: inconclusive

Structure (SMILES): Cc1ccc(S(=O)(=O)N(C)c2ccccc2C(=O)N2CCCC2)cc1
- CC50 [11]: > 40 µM (active)

Structure (SMILES): Sc1nnc(-c2cc[nH]n2)n1-c1ccccc1Cl
- EC50 [1]: 12.7 µM (active)
- EC50 [2]: 19.3 µM (active)
- EC50 [3]: 24.1 µM (active)

Structure (SMILES): CC(C)c1cc(C(=O)Nc2cc(Br)ccc2O)no1
- EC50 [1]: 14 µM (active)
- EC50 [2]: > 120 µM (not active)
- EC50 [3]: > 120 µM (not active)

Structure (SMILES): COc1ccc(CNC(=O)Cn2cccc2C(=O)c2ccccc2C)cc1
- EC50 [1]: 10.3 µM (active)
- EC50 [2]: 16.8 µM (active)
- EC50 [3]: 10.2 µM (active)

Structure (SMILES): CCCn1c(C2CCCN2c2nc(-c3cccc(Br)c3)cs2)nc2ccccc21 (stereo not given)
- EC50 [1]: 5.7 µM (active)
- EC50 [2]: > 120 µM (not active)
- EC50 [3]: 32.7 µM (active)
- CC50 [12]: 20.9 µM (active)

Structure (SMILES): COc1ccccc1C(=O)NN1C(=O)C2C3C=CC(O3)C2C1=O (stereo not given)
- EC50 [13]: > 112 µM (not active)
- AC50 [9]: 17.8 µM (inconclusive)
- EC50 [14]: > 112 µM (not active)
- AC50 [4]: inconclusive

Structure (SMILES): O=C(CCCn1c(=S)[nH]c2ccc(Br)cc2c1=O)NCC1CCCO1 (stereo not given)
- AC50 [9]: 35.5 µM (inconclusive)
- EC50 [15]: > 260 µM (inactive)
- AC50 [4]: inconclusive

Structure (SMILES): O=C(NC(=S)NNC(=O)c1ccccc1O)c1ccccc1
- EC50 [16]: 2.04 µM (active)
- IC50 [6]: 14.2 µM (active)
- EC50 [17]: 8.1 µM (active)

Structure (SMILES): C(=C\n1nnc2ccccc21)/c1ccc[nH]1
- EC50 [1]: 28.4 µM (active)
- EC50 [2]: 32 µM (active)
- EC50 [3]: 9.95 µM (active)

Structure (SMILES): COc1ccc(Cl)cc1NC(=O)C12CCC(C)(C(=O)O1)C2(C)C (stereo not given)
- AC50 [18]: 28.2 µM (inconclusive)
- AC50 [4]: inconclusive

Structure (SMILES): O=C(C1CC1)N1CCCC(c2ccc(Cl)cc2)=N1
- CC50 [8]: > 40 µM (active)

Structure (SMILES): Cc1ccc(C(=N)NOC(=O)N2c3ccccc3Sc3ccccc32)cc1
- CC50 [8]: > 40 µM (active)
- CC50 [19]: 96.4 µM (active)
- IC50 [20]: 134 µM (active)

Structure (SMILES): Cn1c(-c2cccc([N+](=O)[O-])c2)cnc1NCc1cccc([N+](=O)[O-])c1
- CC50 [19]: 100 µM (active)

Structure (SMILES): CCC(=O)N1N=C(c2ccc(NS(C)(=O)=O)cc2)CC1c1ccc(C)cc1 (stereo not given)
- CC50 [11]: > 40 µM (active)

Structure (SMILES): C/C(CC(=O)NCCCN1CCOCC1)=N\NC(=O)COc1ccc(Cl)cc1
- AC50 [10]: 10 µM (inconclusive)
- AC50 [21]: 14.1 µM (inconclusive)
- AC50 [4]: inconclusive

Structure (SMILES): CCOC(=O)c1c(C)c(/C=N/Nc2ccccc2)n(C)c1C
- CC50 [11]: > 40 µM (active)

Structure (SMILES): Sc1nnc(-c2ccco2)n1/N=C/c1cccc(Cl)c1Cl
- AC50 [22]: 4.84 µM (active)
- CC50 [19]: 96.5 µM (active)
- IC50 [20]: 95.7 µM (active)

Structure (SMILES): O=C(N/N=C/c1ccccc1O)C1SCCCS1
- IC50 [6]: 35.6 µM (active)

Structure (SMILES): COc1ccccc1OCC(=O)N/N=C1/SCC(=O)N1Cc1ccccc1
- AC50 [9]: 0.891 µM (inconclusive)
- AC50 [21]: 22.4 µM (inconclusive)
- AC50 [4]: inconclusive

Structure (SMILES): O=C(CCCN1CC=C(n2c(=O)[nH]c3ccccc32)CC1)c1ccc(F)cc1 [DROPERIDOL]
- AC50 [4]: inconclusive

Structure (SMILES): Cc1cc(O)c2c(c1)C(=O)c1cc(O)cc(O)c1C2=O [EMODIN]
- CC50 [8]: 20.1 µM (active)
